In US9428504B2, “7-hydroxy-spiropipiperidine indolinyl antagonists of P2Y1 receptor” (BRISTOL-MYERS SQUIBB COMPANY, priority 2012, dated 2016):
Counter-ions that a name gives are not always drawn.

Key:
[1] = biological target: cloned human P2Y1 receptors (Homo sapiens (Human), UniProt P47900); test: Binding Assay B: Scintillation Proximity Assay (SPA) for P2Y1 binding; details: SPA, [33P] 2MeS-ADP displacement; read-out: P2Y1 Ki (nM) using binding assay B
Description: A SPA membrane binding assay was used to identify inhibitors of [^33P] […] Binding reactions were performed in 384-well OptiPlates (PerkinElmer Life Sciences, Cat #6007299) in a volume of 50 μL containing ˜15 fmol of P2Y1 receptor (1.7 μg of total protein), 0.3 nM [^33P] […] Reactions were allowed to proceed to completion at room temperature for 1 hour followed by centrifugation of the plate for 5 min. About 40 μL of the aqueous solution was aspirated. Plates were sealed and the [^33P]

[2] = test system: human platelet rich plasma (PRP); test: ADP induced platelet aggregation assay; details: Homo sapiens, Platelet, read-out: PA IC50 (μM) @ 10 μM ADP, platelet aggregation induced by 10 μM ADP, human PRP

cloned human P2Y1 receptors, sequence (P47900 whole entry): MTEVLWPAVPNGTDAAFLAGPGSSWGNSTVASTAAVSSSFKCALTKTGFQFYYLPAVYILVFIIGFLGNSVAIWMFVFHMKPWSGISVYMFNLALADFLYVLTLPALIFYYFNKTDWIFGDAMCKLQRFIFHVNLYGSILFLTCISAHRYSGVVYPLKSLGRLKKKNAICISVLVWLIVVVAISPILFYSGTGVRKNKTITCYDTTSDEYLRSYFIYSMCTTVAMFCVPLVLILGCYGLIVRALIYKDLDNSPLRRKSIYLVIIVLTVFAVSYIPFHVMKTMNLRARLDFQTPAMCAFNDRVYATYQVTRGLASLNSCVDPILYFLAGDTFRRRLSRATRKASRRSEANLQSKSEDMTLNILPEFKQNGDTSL

`CC(C)(C)CN1CCC2(CC1)CN(c1ccccc1NC(=O)Nc1ccc(C3CCCN3CC(C)(C)C)cc1)c1c(O)ccc(Cl)c12` (centres unmarked) [Example 58, 1-(2-(4-Chloro-7-hydroxy-1′-neopentylspiro[indoline-3,4′-piperidine]-1-yl)phenyl)-3-(4-(1-neopentylpyrrolidin-2-yl)phenyl)urea] was tested, and the Ki [1] was 12.4 nM and the IC50 [2] was 0.2 µM.
Work on `CC(C)(C)CN1CCC2(CC1)CN(c1ccccc1NC(=O)Nc1ccc(OC(F)(F)F)cc1)c1c(O)ccc(Cl)c12` [Example 59, 1-(2-(4-Chloro-7-hydroxy-1′-neopentylspiro[indoline-3,4′-piperidine]-1-yl)phenyl)-3-(4-(trifluoromethoxy)phenyl)urea] yielded a Ki [1] of 7.2 nM and an IC50 [2] of 0.4 µM.
Work on `CC(C)(C)CN1CCC2(CC1)CN(c1ccccc1NC(=O)Nc1ccc(C(F)(F)F)cc1)c1c(O)ccc(Cl)c12` [Example 60, 1-(2-(4-Chloro-7-hydroxy-1′-neopentylspiro[indoline-3,4′-piperidin]-1-yl)phenyl)-3-(4-(trifluoromethyl)phenyl)urea] yielded a Ki [1] of 6.4 nM and an IC50 [2] of 0.4 µM.
Work on `CC(C)(C)CN1CCC2(CC1)CN(c1ccccc1NC(=O)Nc1csc(Cl)n1)c1c(O)ccc(Cl)c12` [Example 61, 1-(2-(4-Chloro-7-hydroxy-1′-neopentylspiro[indoline-3,4′-piperidin]-1-yl)phenyl)-3-(2-chlorothiazol-4-yl)urea] yielded a Ki [1] of 5.8 nM and an IC50 [2] of 0.2 µM.
`CC(C)c1nc(NC(=O)Nc2ccccc2N2CC3(CCN(CC(C)(C)C)CC3)c3c(Cl)ccc(O)c32)cs1` [Example 62, 1-(2-(4-Chloro-7-hydroxy-1′-neopentylspiro[indoline-3,4′-piperidine]-1-yl)phenyl)-3-(2-isopropylthiazol-4-yl)urea] showed a Ki [1] of 13 nM and an IC50 [2] of 0.8 µM.
`CC(C)(C)CN1CCC2(CC1)CN(c1ccccc1NC(=O)Nc1csc(C(F)(F)F)n1)c1c(O)ccc(Cl)c12` [Example 63, 1-(2-(4-Chloro-7-hydroxy-1′-neopentylspiro[indoline-3,4′-piperidine]-1-yl)phenyl)-3-(2-(trifluoromethyl)thiazol-4-yl)urea] showed a Ki [1] of 4.9 nM and an IC50 [2] of 0.4 µM.
`CC(C)CN1CCC2(CC1)CN(c1ccccc1NC(=O)Nc1ccc(C(F)(F)F)cc1)c1c(O)ccc(Cl)c12` [Example 64, 1-(2-(4-Chloro-7-hydroxy-1′-isobutylspiro[indoline-3,4′-piperidine]-1-yl)phenyl)-3-(4-(trifluoromethyl)phenyl)urea] was tested, and the Ki [1] was 6.5 nM and the IC50 [2] was 1 µM.
Molecule `CC(C)CN1CCC2(CC1)CN(c1ccccc1NC(=O)Nc1nc3ccc(Cl)cc3s1)c1c(O)ccc(Cl)c12` [Example 65, 1-(2-(4-Chloro-7-hydroxy-1′-isobutylspiro[indoline-3,4′-piperidine]-1-yl)phenyl)-3-(6-chlorobenzo[d]thiazol-2-yl)urea] has a Ki [1] of 7.8 nM and an IC50 [2] of 0.4 µM.
`CC(C)(C)CN1CCC2(CC1)CN(c1ncccc1NC(=O)Nc1nc3ccc(F)cc3s1)c1c(O)ccc(Cl)c12` [Example 66, 1-(2-(4-Chloro-7-hydroxy-1′-neopentylspiro[indoline-3,4′-piperidine]-1-yl)pyridin-3-yl)-3-(6-fluorobenzo[d]thiazol-2-yl)urea] was tested, and the Ki [1] was 25.8 nM and the IC50 [2] was 1.2 µM.
`CC(C)(C)CN1CCC2(CC1)CN(c1cc(F)ccc1NC(=O)Nc1nc3ccc(F)cc3s1)c1c(O)ccc(Cl)c12` [Example 67, 1-(2-(4-Chloro-7-hydroxy-1′-neoopentylspiro[indoline-3,4′-piperidine]-1-yl)-4-fluorophenyl)-3-(6-fluorobenzo[d]thiazol-2-yl)urea] gave a Ki [1] of 22.2 nM and an IC50 [2] of 0.3 µM.
`CC(C)(C)CN1CCC2(CC1)CN(c1ccc(C#N)cc1NC(=O)Nc1ccc(OC(F)(F)F)cc1)c1c(O)ccc(Cl)c12` [Example 69, 1-(2-(4-Chloro-7-hydroxy-1′-neopentylspiro[indoline-3,4′-piperidine]-1-yl)-5-cyanophenyl)-3-(4-(trifluoromethoxy)phenyl)urea] was tested, and the Ki [1] was 21.4 nM and the IC50 [2] was 0.8 µM.
`CC(C)(C)CN1CCC2(CC1)CN(c1ccc(C#N)cc1NC(=O)Nc1nc3ccc(F)cc3s1)c1c(O)ccc(Cl)c12` [Example 70, 1-(2-(4-Chloro-7-hydroxy-1′-neopentylspiro[indoline-3,4′-piperidine]-1-yl)-5-cyanophenyl)-3-(6-fluorobenzo[d]thiazol-2-yl)urea] showed a Ki [1] of 29.4 nM and an IC50 [2] of 1 µM.
`CC(C)(C)CN1CCC2(CC1)CN(c1ccccc1NC(=O)Nc1nc3c(s1)CN(CC(F)(F)F)CC3)c1c(O)ccc(Cl)c12` [Example 71, 1-(2-(4-Chloro-7-hydroxy-1′-neopentylspiro[indoline-3,4′-piperidine]-1-yl)phenyl)-3-(5-(2,2,2-trifluoroethyl)-4,5,6,7-tetrahydrothiazolo[5,4-c]pyridin-2-yl)urea] showed a Ki [1] of 11.1 nM and an IC50 [2] of 0.3 µM.
Molecule `CC(C)(C)CN1CCC2(CC1)CN(c1ccccc1NC(=O)Nc1nc3c(s1)CN(C(=O)C(F)(F)F)CC3)c1c(O)ccc(Cl)c12` [Example 72, 1-(2-(4-Chloro-7-hydroxy-1′-neopentylspiro[indoline-3,4′-piperidine]-1-yl)phenyl)-3-(5-(2,2,2-trifluoroacetyl)-4,5,6,7-tetrahydrothiazolo[5.4-c]pyridin-2-yl)urea] has a Ki [1] of 22.4 nM and an IC50 [2] of 0.2 µM.
`CC(C)C(=O)N1CCc2nc(NC(=O)Nc3ccccc3N3CC4(CCN(CC(C)(C)C)CC4)c4c(Cl)ccc(O)c43)sc2C1` [Example 73, 1-(2-(4-Chloro-7-hydroxy-1′-neopentylspiro[indoline-3,4′-piperidine]-1-yl)phenyl)-3-(5-isobutyryl-4,5,6,7-tetrahydrothiazolo [5,4-c]pyriidn-2-yl)urea] showed a Ki [1] of 17.9 nM and an IC50 [2] of 0.5 µM.
Work on `CC(C)CN1CCc2nc(NC(=O)Nc3ccccc3N3CC4(CCN(CC(C)(C)C)CC4)c4c(Cl)ccc(O)c43)sc2C1` [Example 74, 1-(2-(4-Chloro-7-hydroxy-1′-neopentylspiro[indoline-3,4′-piperidine]-1-yl)phenyl)-3-(5-isobutyl-4,5,6,7-tetrahydrothiazolo[5,4-c]pyridin-2-yl)urea] yielded a Ki [1] of 10.3 nM and an IC50 [2] of 0.2 µM.
In the case of `COC(=O)c1ccc(O)c2c1C1(CCN(CC(C)(C)C)CC1)CN2c1ccccc1NC(=O)Nc1nc2ccc(F)cc2s1` [Example 77, Methyl 1-(2-(3-(6-fluorobenzo[d]thiazol-2-yl)ureido)phenyl)-7-hydroxy-1′-neopentylspiro[indoline-3,4′-piperidine]-4-carboxylate], the Ki [1] is reported as 8.7 nM and the IC50 [2] is reported as 0.3 µM.
Work on `COC(=O)c1ccc(O)c2c1C1(CCN(CC(C)(C)C)CC1)CN2c1ccccc1NC(=O)Nc1ccc(F)cc1F` [Example 78, Methyl 1-(2-(3-(2,4-difluorophenyl)ureido)phenyl)-7-hydroxy-1′-neopentylspiro[indoline-3,4′-piperidine]-4-carboxylate] yielded a Ki [1] of 7.9 nM and an IC50 [2] of 0.7 µM.
`COC(=O)c1ccc(O)c2c1C1(CCN(CC(C)(C)C)CC1)CN2c1ccccc1NC(=O)Nc1ccc(OC(F)(F)F)cc1` [Example 79, Methyl 7-hydroxy-1′-neopentyl-1-(2-(3-(4-(trifluoromethoxy)phenyl)ureido)phenyl)-spiro[indoline-3,4′-piperidine]-4-carboxylate] gave a Ki [1] of 9 nM and an IC50 [2] of 0.7 µM.
Molecule `CC(C)CN1CCC2(CC1)CN(c1ccccc1NC(=O)Nc1nc3ccc(Cl)cc3s1)c1c(O)ccc(C#N)c12` [Example 80, 1-(6-Chlorobenzo[d]thiazol-2-yl)-3-(2-(4-cyano-7-hydroxy-1′-isobutylspiro[indoline-3,4′-piperidine]-1-yl)phenyl)urea] has a Ki [1] of 14.4 nM and an IC50 [2] of 0.9 µM.
For `CC(C)(C)CN1CCC2(CC1)CN(c1ccccc1NC(=O)Nc1nc3ccc(F)cc3s1)c1c(O)ccc(C#N)c12` [Example 81, 1-(2-(4-Cyano-7-hydroxy-1′-neopentylspiro[indoline-3,4′-piperidine]-l-yl)phenyl)-3-(6-fluorobenzo[d]thiazol-2-yl) urea, trifluoroacetic acid salt], the Ki [1] was 5 nM and the IC50 [2] was 0.6 µM.
In the case of `CC(C)(C)CN1CCC2(CC1)CN(c1ccccc1NC(=O)Nc1ccc(C(C)(C)C)cc1)c1c(O)ccc(C#N)c12` [Example 82, l-(4-tert-Butylphenyl)-3-(2-(4-cyano-7-hydroxy-1′-neopentylspiro[indoline-3,4′-piperidine]-l-yl)phenyl)urea, trifluoroacetic acid salt], the Ki [1] is reported as 24.8 nM and the IC50 [2] is reported as 1 µM.
With `CC(C)(C)CN1CCC2(CC1)CN(c1ccccc1NC(=O)Nc1nc3ccc(Cl)cc3s1)c1c(O)ccc(C#N)c12` [Example 83, l-(6-Chlorobenzo[d]thiazol-2-yl)-3-(2-(4-cyano-7-hydroxy-1′-neopentylspiro[indoline-3,4′-piperidine]-1-yl)phenyl) urea, trifluoroacetic acid salt] the Ki [1] was 5.7 nM and the IC50 [2] was 0.2 µM.
`Cc1ccc2nc(NC(=O)Nc3ccccc3N3CC4(CCN(CC(C)(C)C)CC4)c4c(C#N)ccc(O)c43)sc2c1` [Example 84, 1-(2-(4-Cyano-7-hydroxy-1′-neopentylspiro[indoline-3,4′-piperidine]-l-yl)phenyl)-3-(6-methylbenzo[d]thiazol-2-yl) urea, trifluoroacetic acid salt] gave a Ki [1] of 11.8 nM and an IC50 [2] of 0.5 µM.
Molecule `CC(C)(C)CN1CCC2(CC1)CN(c1ccccc1NC(=O)Nc1csc(Cl)n1)c1c(O)ccc(C#N)c12` [Example 85, l-(2-Chlorothiazol-4-yl)-3-(2-(4-cyano-7-hydroxy-1′-neopentylspiro[indoline-3,4′-piperidine]-1-yl)phenyl)urea] has a Ki [1] of 3.7 nM and an IC50 [2] of 0.4 µM.
